In the supplement of paper PMC11061612:

Assays:
Experiment in all cases: Bliss excess, mean over the matrix (fraction); higher = more synergy
[1] = tested on: SNG-M (Endometrial Carcinoma)
How it was run: (§1)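 After 24 hours at 37°C and 5% CO2 in 1536-well plates, cells in DMEM/F12 or RPMI plus 10% FBS received two-drug dose matrices for 72 hours. Viability came from CellTiter-Glo 2.0 luminescence and was scaled as inhibition, anchored at 0 by vehicle wells and at 1 by blank wells. Combination Emax is taken as the second-highest inhibition in the matrix, and Bliss excess as the observed combination effect less EA + EB − EA·EB, with EA and EB the single-agent effects.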

[2] = tested on: SW48 (Colorectal Carcinoma)
How it was run: as §1

HCC38 (Breast Carcinoma) = tested on: HCC38 (Breast Carcinoma)
How it was run: as §1

[3] = tested on: D-283MED (Other Solid Carcinomas)
How it was run: as §1

[4] = tested on: MEG-01 (Chronic Myelogenous Leukemia)
How it was run: as §1

MSTO-211H (Mesothelioma) = tested on: MSTO-211H (Mesothelioma)
How it was run: as §1

[5] = tested on: SW948 (Colorectal Carcinoma)
How it was run: as §1

[6] = tested on: NOMO-1 (Acute Myeloid Leukemia)
How it was run: as §1

[7] = tested on: TC-YIK (Other Solid Carcinomas)
How it was run: as §1

[8] = tested on: WSU-DLCL2 (B-Cell Non-Hodgkin's Lymphoma)
How it was run: as §1

[9] = tested on: SK-UT-1 (Other Solid Carcinomas)
How it was run: as §1

D-392MG (Glioblastoma) = tested on: D-392MG (Glioblastoma)
How it was run: as §1

[10] = tested on: YT (Other Blood Carcinomas)
How it was run: as §1

Saos-2 (Osteosarcoma) = tested on: Saos-2 (Osteosarcoma)
How it was run: as §1

| Compound | Bliss excess [1] | Bliss excess [2] | Bliss excess (HCC38 (Breast Carcinoma)) | Bliss excess [3] | Bliss excess [4] | Bliss excess (MSTO-211H (Mesothelioma)) | Bliss excess [5] | Bliss excess [6] | Bliss excess [7] | Bliss excess [8] | Bliss excess [9] | Bliss excess (D-392MG (Glioblastoma)) | Bliss excess [10] | Bliss excess (Saos-2 (Osteosarcoma)) |
| --- | --- | --- | --- | --- | --- | --- | --- | --- | --- | --- | --- | --- | --- | --- |
| C=CCn1c(=O)c2cnc(Nc3ccc(N4CCN(C)CC4)cc3)nc2n1-c1cccc(C(C)(C)O)n1 [AZD1775] + CCc1c2c(nc3ccc(O)cc13)-c1cc3c(c(=O)n1C2)COC(=O)[C@]3(O)CC [SN-38] (first compound max 1 µM, partner max 0.3 µM) | -0.0087 | -0.0052 | -0.0765 | -0.0258 | -0.0251 | -0.0619 | 0.141 | -0.0208 | -0.0451 | 0.003 | -0.032 | -0.0704 | -0.0418 | -0.0514 |
| C=CCn1c(=O)c2cnc(Nc3ccc(N4CCN(C)CC4)cc3)nc2n1-c1cccc(C(C)(C)O)n1 [AZD1775] + Nc1ccn([C@@H]2O[C@H](CO)[C@@H](O)C2(F)F)c(=O)n1 [Gemcitabine] (first compound max 1 µM, partner max 0.3 µM) | -0.0314 | 0.0828 | 0.0214 | 0.0097 | -0.0001 | 0.0226 | 0.104 | 0.0485 | -0.0642 | 0.0694 | -0.0194 | 0.013 | 0.0337 | -0.0728 |
| CN(CCO)CC[C@H](CSc1ccccc1)Nc1ccc(S(=O)(=O)NC(=O)c2ccc(N3CCC([C@@H](O)c4ccccc4-c4ccc(Cl)cc4)CC3)cc2)cc1S(=O)(=O)C(F)(F)F [AZD4320] + CC(=O)O[C@H]1C(=O)[C@@]2(C)[C@H]([C@H](OC(=O)c3ccccc3)[C@]3(O)C[C@H](OC(=O)[C@H](O)[C@@H](NC(=O)c4ccccc4)c4ccccc4)C(C)=C1C3(C)C)[C@]1(OC(C)=O)CO[C@@H]1C[C@@H]2O [Paclitaxel] (first compound max 1 µM, 7x7, partner max 3 µM) | 0.0275 | -0.003 | 0.0324 | -0.0081 | -0.0006 | 0.105 | -0.0074 | -0.0101 | 0.0183 | -0.0101 | -0.0007 | 0.129 | -0.0079 | 0.0937 |
| CN(CCO)CC[C@H](CSc1ccccc1)Nc1ccc(S(=O)(=O)NC(=O)c2ccc(N3CCC([C@@H](O)c4ccccc4-c4ccc(Cl)cc4)CC3)cc2)cc1S(=O)(=O)C(F)(F)F [AZD4320] + CS(=O)(=O)CCNCc1ccc(-c2ccc3ncnc(Nc4ccc(OCc5cccc(F)c5)c(Cl)c4)c3c2)o1 [Lapatinib] (first compound max 1 µM, 7x7, partner max 10 µM) | -0.0091 | 0.14 | 0.0173 | 0.013 | 0.103 | 0.0275 | 0.0049 | 0.0709 | 0.0065 | 0.203 | 0.006 | -0.0269 | 0.0643 | 0.083 |
| CN(CCO)CC[C@H](CSc1ccccc1)Nc1ccc(S(=O)(=O)NC(=O)c2ccc(N3CCC([C@@H](O)c4ccccc4-c4ccc(Cl)cc4)CC3)cc2)cc1S(=O)(=O)C(F)(F)F [AZD4320] + Nc1ccn([C@@H]2O[C@H](CO)[C@@H](O)C2(F)F)c(=O)n1 [Gemcitabine] (first compound max 1 µM, 7x7, partner max 0.3 µM) | -0.0568 | 0.0089 | -0.0171 | -0.0335 | 0.0059 | 0.0099 | 0.0114 | 0.0208 | -0.0091 | 0.0032 | 0.0159 | 0.0921 | -0.0591 | 0.121 |
| Cc1c2c(nn1C)CSCc1cc(n(C)n1)CSc1cc(c3ccccc3c1)OCCCc1c(C(=O)O)n(C)c3c-2c(Cl)ccc13 [AZD5991] + CC(=O)O[C@H]1C(=O)[C@@]2(C)[C@H]([C@H](OC(=O)c3ccccc3)[C@]3(O)C[C@H](OC(=O)[C@H](O)[C@@H](NC(=O)c4ccccc4)c4ccccc4)C(C)=C1C3(C)C)[C@]1(OC(C)=O)CO[C@@H]1C[C@@H]2O [Paclitaxel] (first compound max 1 µM, 7x7, partner max 3 µM) | 0.0374 | -0.0091 | -0.0632 | -0.0552 | 0.12 | 0.0035 | -0.0421 | -0.0215 | -0.0709 | -0.0151 | 0.008 | 0.046 | -0.0159 | 0.0358 |
| Cc1c2c(nn1C)CSCc1cc(n(C)n1)CSc1cc(c3ccccc3c1)OCCCc1c(C(=O)O)n(C)c3c-2c(Cl)ccc13 [AZD5991] + CS(=O)(=O)CCNCc1ccc(-c2ccc3ncnc(Nc4ccc(OCc5cccc(F)c5)c(Cl)c4)c3c2)o1 [Lapatinib] (first compound max 1 µM, 7x7, partner max 10 µM) | -0.0254 | 0.0213 | -0.0638 | – | -0.0318 | 0.0121 | -0.0171 | -0.0873 | -0.0418 | 0.0601 | 0.032 | -0.0727 | 0.0331 | -0.0071 |
| Cc1c2c(nn1C)CSCc1cc(n(C)n1)CSc1cc(c3ccccc3c1)OCCCc1c(C(=O)O)n(C)c3c-2c(Cl)ccc13 [AZD5991] + Nc1ccn([C@@H]2O[C@H](CO)[C@@H](O)C2(F)F)c(=O)n1 [Gemcitabine] (first compound max 1 µM, 7x7, partner max 0.3 µM) | -0.0174 | -0.0377 | -0.0432 | 0.0121 | -0.0412 | -0.0131 | 0.0016 | -0.0065 | -0.0315 | 0.0128 | -0.0367 | -0.112 | 0.0413 | 0.0374 |
| C[C@@H]1COCCN1c1cc(C2([S@](C)(=N)=O)CC2)nc(-c2ccnc3[nH]ccc23)n1 [AZD6738] + C1CC(C1)(C(=O)[O-])C(=O)[O-].N.N.[Pt+2] [Carboplatin] (first compound max 10 µM, 7x7, partner max 10 µM) | -0.0448 | -0.0577 | -0.0516 | – | -0.0513 | -0.0319 | -0.0659 | -0.0037 | -0.0631 | 0.0217 | -0.0214 | -0.0311 | -0.0397 | -0.0302 |
| C[C@@H]1COCCN1c1cc(C2([S@](C)(=N)=O)CC2)nc(-c2ccnc3[nH]ccc23)n1 [AZD6738] + Nc1ccn([C@@H]2O[C@H](CO)[C@@H](O)C2(F)F)c(=O)n1 [Gemcitabine] (first compound max 10 µM, 7x7, partner max 0.3 µM) | -0.0277 | -0.0329 | 0.0715 | -0.0179 | -0.0258 | 0.0098 | 0.0448 | 0.058 | -0.0046 | 0.0721 | 0.0317 | -0.0224 | 0.124 | 0.0312 |
| Cc1cc2ncnn2cc1Nc1ncc2c(n1)n(C1CCOCC1)c(=O)n2C [AZD7648] + COc1cc([C@@H]2c3cc4c(cc3[C@@H](O[C@@H]3O[C@@H]5CO[C@@H](C)O[C@H]5[C@H](O)[C@H]3O)[C@H]3COC(=O)[C@H]23)OCO4)cc(OC)c1O [Etoposide] (first compound max 10 µM, 7x7, partner max 10 µM) | 0.157 | 0.0487 | 0.0373 | 0.0835 | 0.102 | 0.0624 | -0.0456 | 0.113 | 0.0886 | 0.185 | 0.117 | 0.0658 | 0.0495 | 0.054 |
| C[C@@H](Nc1cc(F)cc(F)c1)c1cc(C(=O)N(C)C)cc2c(=O)cc(N3CCOCC3)oc12 [AZD8186] + C1CN(CCC1(C(=O)N[C@@H](CCO)C2=CC=C(C=C2)Cl)N)C3=NC=NC4=C3C=CN4 [AZD5363] (first compound max 10 µM, 7x7, partner max 10 µM) | -0.0046 | -0.024 | -0.0395 | -0.0143 | -0.0906 | 0.0272 | 0.0414 | 0.0385 | -0.0292 | -0.0155 | 0.0224 | -0.122 | -0.0175 | 0.0104 |
| C[C@@H](Nc1cc(F)cc(F)c1)c1cc(C(=O)N(C)C)cc2c(=O)cc(N3CCOCC3)oc12 [AZD8186] + CC(=O)c1c(C)c2cnc(Nc3ccc(N4CCNCC4)cn3)nc2n(C2CCCC2)c1=O [Palbociclib] (first compound max 10 µM, 7x7, partner max 10 µM) | -0.0361 | 0.0715 | -0.0466 | 0.113 | -0.0585 | 0.135 | -0.0457 | 0.0983 | 0.036 | 0.0762 | 0.008 | -0.0827 | 0.0407 | -0.0181 |
| C[C@@H](Oc1cc(-c2cnn(C3CCNCC3)c2)cnc1N)c1c(Cl)ccc(F)c1Cl [Crizotinib] + CC1=C(C(=CC=C1)Cl)NC(=O)C2=CN=C(S2)NC3=CC(=NC(=N3)C)N4CCN(CC4)CCO [Dasatinib] (first compound max 10 µM, 7x7, partner max 2 µM) | 0.0813 | -0.0118 | 0.0255 | 0.0947 | 0.0253 | 0.0718 | -0.0118 | -0.025 | -0.0378 | 0.0824 | 0.0539 | 0.0503 | 0.0714 | 0.0807 |
| C[C@@H](Oc1cc(-c2cnn(C3CCNCC3)c2)cnc1N)c1c(Cl)ccc(F)c1Cl [Crizotinib] + Cn1cnc2c(F)c(Nc3ccc(Br)cc3Cl)c(C(=O)NOCCO)cc21 [Selumetinib] (first compound max 10 µM, 7x7, partner max 10 µM) | -0.0333 | -0.0323 | -0.0447 | -0.0049 | 0.0179 | 0.0294 | 0.0137 | 0.0157 | -0.0663 | -0.0458 | 0.0041 | -0.0718 | -0.0587 | -0.0337 |
| O=C(c1cc(Cc2n[nH]c(=O)c3ccccc23)ccc1F)N1CCN(C(=O)C2CC2)CC1 [Olaparib] + CC1(C)CCC(CN2CCN(c3ccc(C(=O)NS(=O)(=O)c4ccc(NCC5CCOCC5)c([N+](=O)[O-])c4)c(Oc4cnc5[nH]ccc5c4)c3)CC2)=C(c2ccc(Cl)cc2)C1 [Venetoclax] (first compound max 10 µM, 7x7, partner max 1 µM) | -0.0347 | -0.0239 | -0.0247 | 0.0445 | -0.0377 | -0.0264 | -0.0528 | 0.0666 | -0.0304 | 0.0235 | 0.0047 | -0.0886 | 0.0335 | -0.0289 |
